Data on 20 compounds can be found in PubChem BioAssay AID328 (DTP/NCI, 2004).

Values joined by “and” are separate entries in the source; they are usually repeats but may differ in a detail not shown here. Equal values may be shown once. Toxic doses and inconclusive results are not listed.

The assay concerns BDF1 mice, P388 leukemia ip, median survival T/C. Put plainly: NCI In Vivo Anticancer Drug Screen. Data for tumor model P388 Leukemia (intraperitoneal) in B6D2F1 (BDF1) mice. Conditions: endpoint: median survival time, higher = longer survival. In short, it runs like this: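 Antitumour effect was judged in vivo: survival in drug-treated mice, normalised to that of vehicle-dosed controls, gives the reported T/C.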

Setting [1] is: dose: 25.0 mg/kg/injection, schedule: Q01DX009 (ip), vehicle: Klucel (hydroxypropylcellulose) (HPC).
The mark [2] stands for this setting: dose: 50.0 mg/kg/injection, schedule: Q01DX009 (ip), vehicle: Klucel (hydroxypropylcellulose) (HPC).
[3] abbreviates: dose: 100.0 mg/kg/injection, schedule: Q01DX009 (ip), vehicle: Klucel (hydroxypropylcellulose) (HPC).
The mark [4] stands for this setting: dose: 100.0 mg/kg/injection, schedule: Q04DX003 (ip), vehicle: Klucel (hydroxypropylcellulose) (HPC).
The mark [5] stands for this setting: dose: 50.0 mg/kg/injection, schedule: Q01DX009 (ip), vehicle: saline.
Setting [6] is: dose: 100.0 mg/kg/injection, schedule: Q01DX009 (ip), vehicle: saline.
The mark [7] stands for this setting: dose: 100.0 mg/kg/injection, schedule: Q04DX003 (ip), vehicle: saline.
Setting [8] is: dose: 200.0 mg/kg/injection, schedule: Q01DX009 (ip), vehicle: saline.
Setting [9] is: dose: 200.0 mg/kg/injection, schedule: Q04DX003 (ip), vehicle: saline.
[10] abbreviates: dose: 400.0 mg/kg/injection, schedule: Q04DX003 (ip), vehicle: saline.
[11] abbreviates: dose: 50.0 mg/kg/injection, schedule: Q01DX009 (ip), vehicle: saline with Tween-80.
Setting [12] is: dose: 100.0 mg/kg/injection, schedule: Q01DX009 (ip), vehicle: saline with Tween-80.
[13] abbreviates: dose: 200.0 mg/kg/injection, schedule: Q01DX009 (ip), vehicle: saline with Tween-80.
Setting [14] is: dose: 100.0 mg/kg/injection, schedule: Q04DX003 (ip), vehicle: saline with Tween-80.
[15] abbreviates: dose: 200.0 mg/kg/injection, schedule: Q04DX003 (ip), vehicle: saline with Tween-80.
Setting [16] is: dose: 300.0 mg/kg/injection, schedule: Q01DX009 (ip), vehicle: saline with Tween-80.
Where [17] appears, read: dose: 400.0 mg/kg/injection, schedule: Q04DX003 (ip), vehicle: saline with Tween-80.
Where [18] appears, read: dose: 25.0 mg/kg/injection, schedule: Q01DX009 (ip), vehicle: saline with Tween-80.

For `Nc1cc(N)nc(S(=O)O)n1`, the T/C runs as follows: under setting [1], 95 % of control and 111 % of control and 120 % of control; (dose: 25.0 mg/kg/injection, schedule: Q04DX003 (ip), vehicle: Klucel (hydroxypropylcellulose) (HPC)) 104 % of control; under setting [2], 95 % of control; (dose: 50.0 mg/kg/injection, schedule: Q04DX003 (ip), vehicle: Klucel (hydroxypropylcellulose) (HPC)) 95 % of control; under setting [3], 90 % of control and 110 % of control; under setting [4], 100 % of control.

`O=C(COc1cccc(Cl)c1)Nc1cccnc1`: the T/C was 99 % of control (dose: 100.0 mg/kg/injection, schedule: Q01DX001 (ip), vehicle: Klucel (hydroxypropylcellulose) (HPC)) and 99 % of control (dose: 200.0 mg/kg/injection, schedule: Q01DX001 (ip), vehicle: Klucel (hydroxypropylcellulose) (HPC)).

Turning to `C[n+]1cc2c3ccccc3c(N)cc2c2ccccc21`, the T/C reads like this: (dose: 3.12 mg/kg/injection, schedule: Q01DX009 (ip), vehicle: water) 157 % of control; (dose: 6.25 mg/kg/injection, schedule: Q01DX009 (ip), vehicle: water) 185 % of control; (dose: 6.25 mg/kg/injection, schedule: Q04DX003 (ip), vehicle: water) 102 % of control; (dose: 12.5 mg/kg/injection, schedule: Q04DX003 (ip), vehicle: water) 116 % of control; (dose: 25.0 mg/kg/injection, schedule: Q01DX009 (ip), vehicle: water) 91 % of control; (dose: 25.0 mg/kg/injection, schedule: Q04DX003 (ip), vehicle: water) 98 % of control. Further, the T/C is, setting by setting: (dose: 100.0 mg/kg/injection, schedule: Q04DX003 (ip), vehicle: water) 154 % of control; (dose: 150.0 mg/kg/injection, schedule: Q04DX003 (ip), vehicle: water) 203 % of control.

Take `CCOC(=O)CCN1CCCCCC1`: the T/C (dose: 25.0 mg/kg/injection, schedule: Q01DX009 (ip), vehicle: saline) is 91 % of control; the T/C under setting [5] is 120 % of control; the T/C under setting [6] was 95 % of control; the T/C under setting [7] was 100 % of control; the T/C under setting [8] is 92 % of control; the T/C under setting [9] is 100 % of control. Besides, the T/C under setting [10] was 118 % of control.

As to `CC(C)(C)OC(=O)c1cccc(C(=O)OC(C)(C)C)c1`, the T/C (dose: 100.0 mg/kg/injection, schedule: Q04DX002 (ip), vehicle: saline with Tween-80) is 103 % of control; the T/C (dose: 200.0 mg/kg/injection, schedule: Q04DX002 (ip), vehicle: saline with Tween-80) is 95 % of control; the T/C (dose: 400.0 mg/kg/injection, schedule: Q04DX002 (ip), vehicle: saline with Tween-80) was 94 % of control.

Regarding `Nc1ccc(C(=O)O)cn1`, the T/C reads like this: (dose: 20.0 mg/kg/injection, schedule: Q01DX009 (ip), vehicle: saline) 105 % of control; (dose: 40.0 mg/kg/injection, schedule: Q01DX009 (ip), vehicle: saline) 98 % of control; (dose: 80.0 mg/kg/injection, schedule: Q01DX009 (ip), vehicle: saline) 110 % of control.

For the compound `O=C(OCCC(OC(=O)c1ccccc1)C(COC(=O)c1ccccc1)OC(=O)c1ccccc1)c1ccccc1` (centres undefined), the T/C was 87 % of control under setting [3] and 95 % of control (dose: 200.0 mg/kg/injection, schedule: Q01DX009 (ip), vehicle: Klucel (hydroxypropylcellulose) (HPC)).

As for `O=C1C=CC(=O)N1c1ccc(-c2nc3ccccc3o2)cc1`, the T/C is, setting by setting: (dose: 50.0 mg/kg/injection, schedule: Q01DX005 (ip), vehicle: saline with Tween-80) 121 % of control; (dose: 100.0 mg/kg/injection, schedule: Q01DX005 (ip), vehicle: saline with Tween-80) 100 % of control.

In the case of `O=C(c1ccccc1)C1CCC(=O)C1c1ccccc1` (centres undefined), the T/C runs as follows: under setting [11], 108 % of control; under setting [12], 100 % of control; under setting [13], 99 % of control.

With `COc1c(CO)c2c(c(OC)c1OC)-c1ccc(OC)c(=O)cc1[C@@H](NC(C)=O)CC2`, the T/C runs as follows: under setting [1], 153 % of control; under setting [2], 168 % of control.

With `Ic1ccccc1C[N+]12CN3CN(CN(C3)C1)C2`, the T/C runs as follows: under setting [11], 108 % of control; (dose: 60.0 mg/kg/injection, schedule: Q01DX009 (ip), vehicle: alcohol) 95 % of control; (dose: 85.0 mg/kg/injection, schedule: Q01DX009 (ip), vehicle: alcohol) 95 % of control; under setting [12], 120 % of control; under setting [6], 115 % of control; under setting [14], 110 % of control. Besides, the T/C runs as follows: under setting [7], 118 % of control; (dose: 132.0 mg/kg/injection, schedule: Q01DX009 (ip), vehicle: saline with Tween-80) 111 % of control; under setting [15], 110 % of control; under setting [9], 113 % of control; under setting [16], 100 % of control and 123 % of control; under setting [17], 95 % of control. Besides, the T/C under setting [10] is 113 % of control.

For `C(=N\C(/N=C/c1ccccc1)c1ccccc1)/c1ccccc1`, the T/C is 91 % of control under setting [3]; 100 % of control under setting [4]; 95 % of control (dose: 200.0 mg/kg/injection, schedule: Q04DX003 (ip), vehicle: Klucel (hydroxypropylcellulose) (HPC)); 87 % of control (dose: 400.0 mg/kg/injection, schedule: Q01DX009 (ip), vehicle: Klucel (hydroxypropylcellulose) (HPC)); 100 % of control (dose: 400.0 mg/kg/injection, schedule: Q04DX003 (ip), vehicle: Klucel (hydroxypropylcellulose) (HPC)).

With `CC(=O)OC(c1ccccc1)C(Cl)(Cl)Cl` (centres undefined), the T/C by setting is: under setting [14], 100 % of control; under setting [15], 105 % of control; under setting [17], 110 % of control.

In the case of `COC(=O)/C=C(\C)Oc1cc(Cl)c(Cl)cc1Cl`, the T/C by setting is: under setting [18], 90 % of control; under setting [11], 100 % of control; under setting [12], 100 % of control; under setting [14], 109 % of control; under setting [15], 100 % of control; under setting [17], 95 % of control.

On to `CC(=O)c1ccccc1OCC(O)CN1CCN(c2ccccc2)CC1` (centres undefined), for which the T/C was 100 % of control under setting [18]; 113 % of control (dose: 25.0 mg/kg/injection, schedule: Q04DX003 (ip), vehicle: saline with Tween-80); 100 % of control under setting [11]; 104 % of control (dose: 50.0 mg/kg/injection, schedule: Q04DX003 (ip), vehicle: saline with Tween-80); 96 % of control under setting [12]; 109 % of control under setting [14].

As to `OCC(O)C(O)C(O)c1cnn(-c2ccccc2)n1` (centres undefined), the T/C runs as follows: (dose: 75.0 mg/kg/injection, schedule: Q01DX009 (ip), vehicle: saline with Tween-80) 96 % of control; (dose: 150.0 mg/kg/injection, schedule: Q01DX009 (ip), vehicle: saline with Tween-80) 89 % of control; under setting [16], 96 % of control.

`C#CC1(O)CC[C@H]2[C@@H]3CCC4=CCCC[C@@H]4[C@H]3CC[C@@]21C` (some centres undefined): the T/C reads like this: under setting [6], 95 % of control; (dose: 100.0 mg/kg/injection, schedule: Q04DX003 (ip), vehicle: alcohol) 100 % of control; under setting [8], 90 % of control; (dose: 200.0 mg/kg/injection, schedule: Q04DX003 (ip), vehicle: alcohol) 95 % of control; (dose: 400.0 mg/kg/injection, schedule: Q01DX009 (ip), vehicle: saline) 86 % of control; (dose: 400.0 mg/kg/injection, schedule: Q04DX003 (ip), vehicle: alcohol) 105 % of control.

In the case of `C[N+](C)(C)c1ncnc2c1ncn2C1CCCO1` (centres undefined), the T/C runs as follows: under setting [5], 100 % of control; under setting [6], 109 % of control; under setting [7], 100 % of control; under setting [9], 100 % of control.

On to `Clc1ccccc1N1CN(c2ccccc2Cl)CN(c2ccccc2Cl)C1`, for which the T/C reads like this: under setting [11], 104 % of control; under setting [12], 100 % of control; under setting [13], 100 % of control.

In the case of `CCOC(=O)c1cc[nH]c1CC(=O)NC`, the T/C is 112 % of control (dose: 200.0 mg/kg/injection, schedule: Q01DX001 (ip), vehicle: saline with Tween-80) and 112 % of control (dose: 400.0 mg/kg/injection, schedule: Q01DX001 (ip), vehicle: saline with Tween-80).
